# Laboratory results published in patent US10865316B2 (Clemson University Research Foundation, priority 2015, dated 2020).
# “Also recorded” adds a separate entry of the source.
# Experiments:
# oyster hemocytes = assay type: cell-based
# 3-day old cyprid = details: in vivo
substance,measurement,setting,value
pGlu Gly Val Cys Cys Gly Tyr Lys Leu Cys His Hyp Cys-NH2 [SEQ ID NO: 13],apoptosis in oyster hemocytes,oyster hemocytes,cause apoptosis
same,cyprid settlement,3-day old cyprid,inhibited cyprid settlement; also recorded: promoted settlement
